# Patent publication US10407414B2, “Mannose derivatives for treating bacterial infections” (priority 2015, dated 2019)
# Tested on: bacterial strain LF82 binding to the glycoprotein BSA-(Mannose)3 (FimH antagonists)
# Test: Bacterial Binding Assay (BBA)
# Format: cell-based, Escherichia coli
# Details: read-out: Bacterial Binding Assay IC50 ± SEM
# Summary of the method: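 Luciferase-expressing E. coli LF82, grown overnight at 37 °C without shaking, added as 2×10^8 bacteria/mL suspension with compound in BSA/D-PBS binding buffer. Wells were coated with 0.5–2 μg/mL BSA-(Man)3 and BSA-blocked, with 40–75 min binding at room temperature. After washing, adherent bacteria were read by luciferase luminescence and IC50 derived.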
row,Structure (SMILES),IC50 [nM]
1,"OC[C@H]1O[C@H](C#Cc2cc(-n3cc(-c4ccccc4)nn3)cc3cn[nH]c23)[C@@H](O)[C@@H](O)[C@@H]1O [Compound 66, (2R,3S,4R,5S,6R)-2-(hydroxymethyl)-6-[2-[5-(4-phenyltriazol-1-yl)-1H-indazol-7-yl]ethynyl]tetrahydropyran-3,4,5-triol]",2
2,"CN1CC=C(c2cc(C#C[C@H]3O[C@H](CO)[C@@H](O)[C@H](O)[C@@H]3O)c3[nH]ncc3c2)CC1 [Compound 67, (2R,3S,4R,5S,6R)-2-(hydroxymethyl)-6-[2-[5-(1-methyl-3,6-dihydro-2H-pyridin-4-yl)-1H-indazol-7-yl]ethynyl]tetrahydropyran-3,4,5-triol]",2 ± 0.9
3,"OC[C@H]1O[C@H](C#Cc2cc(C3=CCOCC3)cc3cn[nH]c23)[C@@H](O)[C@@H](O)[C@@H]1O [Compound 68, (2R,3S,4R,5S,6R)-2-[2-[5-(3,6-dihydro-2H-pyran-4-yl)-1H-indazol-7-yl]ethynyl]-6-(hydroxymethyl)tetrahydropyran-3,4,5-triol]",1 ± 0.4
4,"CCc1ccc(/C=C/c2cc(C#C[C@H]3O[C@H](CO)[C@@H](O)[C@H](O)[C@@H]3O)c3[nH]ncc3c2)cc1 [Compound 69, (2R,3S,4R,5S,6R)-2-[2-[5-[(E)-2-(4-ethylphenyl)vinyl]-1H-indazol-7-yl]ethynyl]-6-(hydroxymethyl)tetrahydropyran-3,4,5-triol]",13 ± 9
5,"OC[C@H]1O[C@H](C#Cc2cc(C3=CCCC3)cc3cn[nH]c23)[C@@H](O)[C@@H](O)[C@@H]1O [Compound 70, (2R,3S,4R,5S,6R)-2-[2-[5-(cyclopenten-1-yl)-1H-indazol-7-yl]ethynyl]-6-(hydroxymethyl)tetrahydropyran-3,4,5-triol]",0.2 ± 0.04
6,"CCOC(=O)C1CC=C(c2cc(C#C[C@H]3O[C@H](CO)[C@@H](O)[C@H](O)[C@@H]3O)c3[nH]ncc3c2)CC1 (stereo partly drawn) [Compound 71, ethyl 4-[7-[2-[(2R,3S,4R,5S,6R)-3,4,5-trihydroxy-6-(hydroxymethyl)tetrahydropyran-2-yl]ethynyl]-1H-indazol-5-yl]cyclohex-3-ene-1-carboxylate]",0.6 ± 0.2
7,"CC(C)(C)OC(=O)n1ccc(-c2cc(C#C[C@H]3O[C@H](CO)[C@@H](O)[C@H](O)[C@@H]3O)c3[nH]ncc3c2)c1 [Compound 72, tert-butyl 3-[7-[2-[(2R,3S,4R,5S,6R)-3,4,5-trihydroxy-6-(hydroxymethyl)tetrahydropyran-2-yl]ethynyl]-1H-indazol-5-yl]pyrrole-1-carboxylate]",7 ± 4
8,"COc1ccc(-c2cc(C#C[C@H]3O[C@H](CO)[C@@H](O)[C@H](O)[C@@H]3O)c3[nH]ncc3c2)cn1 [Compound 73, (2R,3S,4R,5S,6R)-2-(hydroxymethyl)-6-[2-[5-(6-methoxy-3-pyridyl)-1H-indazol-7-yl]ethynyl]tetrahydropyran-3,4,5-triol]",0.5 ± 0.09
9,"O=c1ccc(-c2cc(C#C[C@H]3O[C@H](CO)[C@@H](O)[C@H](O)[C@@H]3O)c3[nH]ncc3c2)c[nH]1 [Compound 74, 5-[7-[2-[(2R,3S,4R,5S,6R)-3,4,5-trihydroxy-6-(hydroxymethyl)tetrahydropyran-2-yl]ethynyl]-1H-indazol-5-yl]-1H-pyridin-2-one]",0.3 ± 0.05
10,"OC[C@H]1O[C@H](C#Cc2cc(-c3ccc(OCc4ccccc4)nc3)cc3cn[nH]c23)[C@@H](O)[C@@H](O)[C@@H]1O [Compound 75, (2R,3S,4R,5S,6R)-2-[2-[5-(6-benzyloxy-3-pyridyl)-indazol-7-yl]ethynyl]-6-(hydroxymethyl)tetrahydropyran-3,4,5-triol]",2 ± 0.7
11,"Cc1cc(=O)n(C)cc1-c1cc(C#C[C@H]2O[C@H](CO)[C@@H](O)[C@H](O)[C@@H]2O)c2[nH]ncc2c1 [Compound 76, 1,4-dimethyl-5-[7-[2-[(2R,3S,4R,5S,6R)-3,4,5-trihydroxy-6-(hydroxymethyl)tetrahydropyran-2-yl]ethynyl]-1H-indazol-5-yl]pyridin-2-one]",0.3 ± 0.09
12,"Cc1ccncc1-c1cc(C#C[C@H]2O[C@H](CO)[C@@H](O)[C@H](O)[C@@H]2O)c2[nH]ncc2c1 [Compound 77, (2R,3S,4R,5S,6R)-2-(hydroxymethyl)-6-[2-[5-(4-methyl-3-pyridyl)-1H-indazol-7-yl]ethynyl]tetrahydropyran-3,4,5-triol]",0.1 ± 0.02
13,"COc1ncc(C)cc1-c1cc(C#C[C@H]2O[C@H](CO)[C@@H](O)[C@H](O)[C@@H]2O)c2[nH]ncc2c1 [Compound 78, (2R,3S,4R,5S,6R)-2-(hydroxymethyl)-6-[2-[5-(2-methoxy-5-methyl-3-pyridyl)-1H-indazol-7-yl]ethynyl]tetrahydropyran-3,4,5-triol]",2 ± 0.6
14,"Cc1cc(-c2cc(C#C[C@H]3O[C@H](CO)[C@@H](O)[C@H](O)[C@@H]3O)c3[nH]ncc3c2)c[nH]c1=O [Compound 79, 3-methyl-5-[7-[2-[(2R,3S,4R,5S,6R)-3,4,5-trihydroxy-6-(hydroxymethyl)tetrahydropyran-2-yl]ethynyl]-1H-indazol-5-yl]-1H-pyridin-2-one]",0.4 ± 0.1
15,"Cc1nc(O)ccc1-c1cc(C#C[C@H]2O[C@H](CO)[C@@H](O)[C@H](O)[C@@H]2O)c2[nH]ncc2c1 [Compound 80, (2R,3S,4R,5S,6R)-2-(hydroxymethyl)-6-[2-[5-(6-hydroxy-2-methyl-3-pyridyl)-1H-indazol-7-yl]ethynyl]tetrahydropyran-3,4,5-triol]",0.2 ± 0.08
16,"OC[C@H]1O[C@H](C#Cc2cc(-c3ccc(F)cc3F)cc3cn[nH]c23)[C@@H](O)[C@@H](O)[C@@H]1O [Compound 81, (2R,3S,4R,5S,6R)-2-[2-[5-(2,4-difluorophenyl)-1H-indazol-7-yl]ethynyl]-6-(hydroxymethyl)tetrahydropyran-3,4,5-triol]",0.4 ± 0.2
17,"Cc1ccc(C)c(-c2cc(C#C[C@H]3O[C@H](CO)[C@@H](O)[C@H](O)[C@@H]3O)c3[nH]ncc3c2)c1 [Compound 82, (2R,3S,4R,5S,6R)-2-[2-[5-(2,5-dimethylphenyl)-1H-indazol-7-yl]ethynyl]-6-(hydroxymethyl)tetrahydropyran-3,4,5-triol]",1
18,"Cc1cc(-c2cc(C#C[C@H]3O[C@H](CO)[C@@H](O)[C@H](O)[C@@H]3O)c3[nH]ncc3c2)cc(C)n1 [Compound 83, (2R,3S,4R,5S,6R)-2-[2-[5-(2,6-dimethyl-4-pyridyl)-1H-indazol-7-yl]ethynyl]-6-(hydroxymethyl)tetrahydropyran-3,4,5-triol]",0.7 ± 0.5
19,"Cc1cc(-c2cc(C#C[C@H]3O[C@H](CO)[C@@H](O)[C@H](O)[C@@H]3O)c3[nH]ncc3c2)ccn1 [Compound 84, (2R,3S,4R,5S,6R)-2-(hydroxymethyl)-6-[2-[5-(2-methyl-4-pyridyl)-1H-indazol-7-yl]ethynyl]tetrahydropyran-3,4,5-triol]",0.5 ± 0.2
20,"O=c1cc(-c2cc(C#C[C@H]3O[C@H](CO)[C@@H](O)[C@H](O)[C@@H]3O)c3[nH]ncc3c2)cc[nH]1 [Compound 85, 4-[7-[2-[(2R,3S,4R,5S,6R)-3,4,5-trihydroxy-6-(hydroxymethyl)tetrahydropyran-2-yl]ethynyl]-1H-indazol-5-yl]-1H-pyridin-2-one]",0.4 ± 0.2
21,"OC[C@H]1O[C@H](C#Cc2cc(-c3cc(F)ccc3F)cc3cn[nH]c23)[C@@H](O)[C@@H](O)[C@@H]1O [Compound 86, (2R,3S,4R,5S,6R)-2-[2-[5-(2,5-difluorophenyl)-1H-indazol-7-yl]ethynyl]-6-(hydroxymethyl)tetrahydropyran-3,4,5-triol]",1 ± 0.2
22,CCc1ccccc1-c1cc(C#C[C@H]2O[C@H](CO)[C@@H](O)[C@H](O)[C@@H]2O)c2[nH]ncc2c1 [Compound 87],1
23,"Cc1ccc(-c2cc(C#C[C@H]3O[C@H](CO)[C@@H](O)[C@H](O)[C@@H]3O)c3[nH]ncc3c2)c(C)c1 [Compound 88, (2R,3S,4R,5S,6R)-2-[2-[5-(2,4-dimethylphenyl)-1H-indazol-7-yl]ethynyl]-6-(hydroxymethyl)tetrahydropyran-3,4,5-triol]",2
24,"Cc1ccc(C#N)cc1-c1cc(C#C[C@H]2O[C@H](CO)[C@@H](O)[C@H](O)[C@@H]2O)c2[nH]ncc2c1 [Compound 89, 4-methyl-3-[7-[2-[(2R,3S,4R,5S,6R)-3,4,5-trihydroxy-6-(hydroxymethyl)tetrahydropyran-2-yl]ethynyl]-1H-indazol-5-yl]benzonitrile]",0.5 ± 0.04
25,"CNC(=O)c1ccc(F)c(-c2cc(C#C[C@H]3O[C@H](CO)[C@@H](O)[C@H](O)[C@@H]3O)c3[nH]ncc3c2)c1 [Compound 90, 4-fluoro-N-methyl-3-[7-[2-[(2R,3S,4R,5S,6R)-3,4,5-trihydroxy-6-(hydroxymethyl)tetrahydropyran-2-yl]ethynyl]-1H-indazol-5-yl]benzamide]",3
26,"Cc1cc(O)ccc1-c1cc(C#C[C@H]2O[C@H](CO)[C@@H](O)[C@H](O)[C@@H]2O)c2[nH]ncc2c1 [Compound 91, (2R,3S,4R,5S,6R)-2-(hydroxymethyl)-6-[2-[5-(4-hydroxy-2-methyl-phenyl)-1H-indazol-7-yl]ethynyl]tetrahydropyran-3,4,5-triol]",0.3 ± 0.03
27,"CNC(=O)c1cc(-c2cc(C#C[C@H]3O[C@H](CO)[C@@H](O)[C@H](O)[C@@H]3O)c3[nH]ncc3c2)ccn1 [Compound 92, N-methyl-4-[7-[2-[(2R,3S,4R,5S,6R)-3,4,5-trihydroxy-6-(hydroxymethyl)tetrahydropyran-2-yl]ethynyl]-1H-indazol-5-yl]pyridine-2-carboxamide]",1
28,"CCN(CC)S(=O)(=O)c1ccc(C)c(-c2cc(C#C[C@H]3O[C@H](CO)[C@@H](O)[C@H](O)[C@@H]3O)c3[nH]ncc3c2)c1 [Compound 93, N,N-diethyl-4-methyl-3-[7-[2-[(2R,3S,4R,5S,6R)-3,4,5-trihydroxy-6-(hydroxymethyl)tetrahydropyran-2-yl]ethynyl]-1H-indazol-5-yl]benzenesulfonamide]",1
29,"Cc1cc(F)ccc1-c1cc(C#C[C@H]2O[C@H](CO)[C@@H](O)[C@H](O)[C@@H]2O)c2[nH]ncc2c1 [Compound 94, (2R,3S,4R,5S,6R)-2-[2-[5-(4-fluoro-2-methyl-phenyl)-1H-indazol-7-yl]ethynyl]-6-(hydroxymethyl)tetrahydropyran-3,4,5-triol]",0.6 ± 0.3
